# Experimental data reported in publication PMC7144209, “Design, synthesis and anticancer activity of naphthoquinone derivatives” (Journal of Enzyme Inhibition and Medicinal Chemistry, 2020).
# What was measured:
# [1] = test system: L02; test: MTT cell viability assay, L02 cells; type: cell-based; settings: Homo sapiens, n = 3
# [2] = test system: MGC-803; test: MTT cell viability assay, MGC-803 cells; type: cell-based; settings: Homo sapiens, MGC-803, 48 h, n = 3
# Method: (§1) MGC-803, SGC-7901, U87 and SMMC-7721 cell lines were cultured in DMEM supplemented with 10% foetal bovine serum, 100 IU/mL penicillin/streptomycin. The cells were incubated in an atmosphere containing 5% CO2 at 37 °C.
# (§2) MGC-803, SGC-7901, U87 and SMMC-7721 cells were plated in 96-well plate at 7000 per well. Cells were incubated with the different concentrations of the compounds for 48 h. Subsequently, MTT (0.5 mg/mL) were used to test the cell viability, then 150 μL DMSO was added to each well after cells were incubated for 4 h and the absorbance was measured at 492 nm.
# [3] = test system: SGC-7901; test: MTT cell viability assay, SGC-7901 cells; type: cell-based, human; settings: Homo sapiens, SGC-7901, 48 h, n = 3
# Method: as §1, §2
# [4] = test system: U87; test: MTT cell viability assay, U87 cells; type: cell-based; settings: Homo sapiens, U-87 MG, 48 h, n = 3
# Method: as §1, §2
# [5] = test system: SMMC-7721; test: MTT cell viability assay, SMMC-7721 cells; type: cell-based; settings: Homo sapiens, 48 h, n = 3
# Method: as §1, §2
# [6] = test system: SGC-7901, MGC-803, SMMC-7721, U-87 cell lines; test: MTT anticancer activity, summary in words over the cell line panel; type: cell-based; settings: MTT assay
# Method: as §2
# Compounds 1–24 were detected for anticancer activities against SGC-7901, MGC-803, SMMC-7721, U-87 cell lines in vitro by the MTT assay, and ADM was used as the positive control. From Table 1, when the phenolic hydroxyls of naphthoquinone moiety were converted to ether, the activity was missing. […] So colony formation assay of this compound (Figure 4) was used to investigate the effect of it on cell proliferation in SGC-7901 cells. The experiment examined the ability for producing colonies after the cells were treated with the cell death agents[35]^,[36].
Compound,IC50 [1] [µM],melting point [°C],IC50 [2] [µM],IC50 [3] [µM],IC50 [4] [µM],IC50 [5] [µM],anticancer activity (in words) [6]
"COc1cc(/C=C/CC(=O)OC(CC=C(C)C)C2=CC(=O)c3c(O)ccc(O)c3C2=O)cc(OC)c1OC (stereo not drawn) [Compound 5, 1-(5,8-dihydroxy-1,4-dioxo-1,4-dihydronaphthalen-2-yl)-4-methylpent-3-en-1-yl (E)-4-(3,4,5-trimethoxyphenyl)but-3-enoate]",> 100,54,> 100,> 100,> 100,> 100,–
"CCN(CC)C(=O)CCC(=O)OC(CC=C(C)C)C1=CC(=O)c2c(O)ccc(O)c2C1=O (stereo not drawn) [Compound 22, 1-(5,8-dihydroxy-1,4-dioxo-1,4-dihydronaphthalen-2-yl)-4-methylpent-3-en-1-yl 4-(diethylamino)-4-oxobutanoate]",> 50,77,9.4 ± 0.4,19.8 ± 1.8,40.7 ± 4.7,46.5 ± 1.7,–
"COc1ccccc1NC(=O)CCC(=O)OC(CC=C(C)C)C1=CC(=O)c2c(O)ccc(O)c2C1=O (stereo not drawn) [Compound 15, 1-(5,8-dihydroxy-1,4-dioxo-1,4-dihydronaphthalen-2-yl)-4-methylpent-3-en-1-yl-4-((2-methoxyphenyl)amino)-4-oxobutanoate]",> 100,113,> 100,> 100,> 100,> 100,–
"CC(C)=CCC(OC(=O)COc1ccc(Cl)cc1)C1=CC(=O)c2c(O)ccc(O)c2C1=O (stereo not drawn) [Compound 6, 1-(5,8-dihydroxy-1,4-dioxo-1,4-dihydronaphthalen-2-yl)-4-methylpent-3-en-1-yl-2-(4-chlorophenoxy)acetate]",> 100,102,> 100,> 100,> 100,> 100,–
"CC(C)=CCC(OC(=O)CCC(=O)NCCc1cccc(Cl)c1)C1=CC(=O)c2c(O)ccc(O)c2C1=O (stereo not drawn) [Compound 17, 1-(5,8-dihydroxy-1,4-dioxo-1,4-dihydronaphthalen-2-yl)-4-methylpent-3-en-1-yl-4-((3-chlorophenethyl)amino)-4-oxobutanoate]",11.4 ± 1.8,–,6.7 ± 2.4,20.8 ± 0.5,3.8 ± 1.7,15.9 ± 0.2,good activity
"CC(C)=CCC(OC(=O)CCC(=O)N1CCOCC1)C1=CC(=O)c2c(O)ccc(O)c2C1=O (stereo not drawn) [Compound 8, 1-(5,8-dihydroxy-1,4-dioxo-1,4-dihydronaphthalen-2-yl)-4-methylpent-3-en-1-yl 4-morpholino-4-oxobutanoate]",> 50,105,10.4 ± 0.7,20 ± 3.9,10 ± 1.6,16.7 ± 1.8,–
"CC(C)=CCC(OC(=O)CCC(=O)Nc1cccc2ccccc12)C1=CC(=O)c2c(O)ccc(O)c2C1=O (stereo not drawn) [Compound 16, 1-(5,8-dihydroxy-1,4-dioxo-1,4-dihydronaphthalen-2-yl)-4-methylpent-3-en-1-yl-4-(naphthalen-1-ylamino)-4-oxobutanoate]",13 ± 2.4,127,5.9 ± 2.6,5.6 ± 2.6,5.41 ± 0.67,24.3 ± 1.7,–
"CC(C)=CCC(O)C1=CC(=O)c2c(OCc3ccccc3)ccc(OCc3ccccc3)c2C1=O (stereo not drawn) [Compound 2, 5,8-bis(benzyloxy)-2-(1-hydroxy-4-methylpent-3-en-1-yl)naphthalene-1,4-dione]",> 100,60,> 100,> 100,> 100,> 100,–
"COc1ccc(OC)c2c1C(=O)C=C(C(O)CC=C(C)C)C2=O (stereo not drawn) [Compound 1, 2-(1-hydroxy-4-methylpent-3-en-1-yl)-5,8-dimethoxynaphthalene-1,4-dione]",> 100,94.3,> 100,> 100,> 100,> 100,–
"CC(C)=CCC(OC(=O)/C=C\C(=O)N1CCOCC1)C1=CC(=O)c2c(O)ccc(O)c2C1=O (stereo not drawn) [Compound 24, 1-(5,8-dihydroxy-1,4-dioxo-1,4-dihydronaphthalen-2-yl)-4-methylpent-3-en-1-yl (Z)-4-morpholino-4-oxobut-2-enoate]",> 100,104,40.8 ± 1.9,38.5 ± 0.7,20.6 ± 0.6,50.1 ± 0.8,–
"CC(C)=CCC(OC(=O)CCC(=O)NCCc1ccccc1Cl)C1=CC(=O)c2c(O)ccc(O)c2C1=O (stereo not drawn) [Compound 18, 1-(5,8-dihydroxy-1,4-dioxo-1,4-dihydronaphthalen-2-yl)-4-methylpent-3-en-1-yl-4-((2-chlorophenethyl)amino)-4-oxobutanoate]",20.2 ± 2,97.8,6.6 ± 4.7,23.7 ± 0.5,7.7 ± 4.4,17.9 ± 1.6,–
"CCCCCCN(CCCCCC)C(=O)CCC(=O)OC(CC=C(C)C)C1=CC(=O)c2c(O)ccc(O)c2C1=O (stereo not drawn) [Compound 23, 1-(5,8-dihydroxy-1,4-dioxo-1,4-dihydronaphthalen-2-yl)-4-methylpent-3-en-1-yl 4-(dihexylamino)-4-oxobutanoate]",> 100,–,> 100,> 100,> 100,> 100,–
"CC(C)=CCC(OC(=O)CCC(=O)NCCc1ccc(Br)cc1)C1=CC(=O)c2c(O)ccc(O)c2C1=O (stereo not drawn) [Compound 19, 1-(5,8-dihydroxy-1,4-dioxo-1,4-dihydronaphthalen-2-yl)-4-methylpent-3-en-1-yl-4-((4-bromophenethyl)amino)-4-oxobutanoate]",8.5 ± 0.4,134,5.7 ± 2.4,7.6 ± 2.3,9.1 ± 2.5,17.9 ± 1,–
"CC(C)=CCC(OC(=O)CCC(=O)Nc1ccc(Br)cc1)C1=CC(=O)c2c(O)ccc(O)c2C1=O (stereo not drawn) [Compound 14, 1-(5,8-dihydroxy-1,4-dioxo-1,4-dihydronaphthalen-2-yl)-4-methylpent-3-en-1-yl-4-((4-bromophenyl)amino)-4-oxobutanoate]",16.2 ± 1.7,105,10.2 ± 1.3,10.7 ± 1.8,> 100,14.8 ± 0.1,–
"COc1cccc2c1C(=O)c1c(O)c3c(c(O)c1C2=O)C[C@@](O)(C(=O)CO)C[C@@H]3O[C@H]1C[C@H](N)[C@H](O)[C@H](C)O1 [ADM, Adriamycin, reference compound]",> 100,–,0.48 ± 0.06,0.72 ± 0.12,0.57 ± 0.32,0.46 ± 0.63,–
"CC(C)=CCC(OC(=O)CCC(=O)NCCc1ccccc1F)C1=CC(=O)c2c(O)ccc(O)c2C1=O (stereo not drawn) [Compound 21, 1-(5,8-dihydroxy-1,4-dioxo-1,4-dihydronaphthalen-2-yl)-4-methylpent-3-en-1-yl 4-((2-fluorophenethyl)amino)-4-oxobutanoate]",16 ± 2.2,91,6.9 ± 3.9,14.8 ± 1.6,6.1 ± 0.6,15.4 ± 0.4,–
"CC(C)=CCC(OC(=O)CCc1ccccc1)C1=CC(=O)c2c(O)ccc(O)c2C1=O (stereo not drawn) [Compound 3, 1-(5,8-dihydroxy-1,4-dioxo-1,4-dihydronaphthalen-2-yl)-4-methylpent-3-en-1-yl-3-phenylpropanoate]",13.6 ± 1.5,60,4.5 ± 1.1,10.6 ± 4.3,8 ± 0.85,15.6 ± 3.3,–
"CC(C)=CCC(OC(=O)C=Cc1ccccc1)C1=CC(=O)c2c(O)ccc(O)c2C1=O (stereo not drawn) [Compound 4, 1-(5,8-dihydroxy-1,4-dioxo-1,4-dihydronaphthalen-2-yl)-4-methylpent-3-en-1-yl cinnamate]",> 100,85,> 100,75.1 ± 0.4,65.7 ± 2.7,–,–
"COc1ccc(NC(=O)CCC(=O)OC(CC=C(C)C)C2=CC(=O)c3c(O)ccc(O)c3C2=O)cc1 (stereo not drawn) [Compound 10, 1-(5,8-dihydroxy-1,4-dioxo-1,4-dihydronaphthalen-2-yl)-4-methylpent-3-en-1-yl-4-((4-methoxyphenyl)amino)-4-oxobutanoate]",11.9 ± 0.6,115,7.9 ± 1.8,11.1 ± 1.2,12.3 ± 2.8,12.4 ± 2.6,–
"CC(C)=CCC(OC(=O)CCC(=O)N1CCCCC1)C1=CC(=O)c2c(O)ccc(O)c2C1=O (stereo not drawn) [Compound 7, 1-(5,8-dihydroxy-1,4-dioxo-1,4-dihydronaphthalen-2-yl)-4-methylpent-3-en-1-yl-4-oxo-4-(piperidin-1-yl)butanoate]",36.8 ± 4.1,120,9.7 ± 2.3,33.6 ± 2.1,9.68 ± 2.3,14.4 ± 1.5,–
